Measurements taken from patent US9642869B2, “Boronic acid derivatives and therapeutic uses thereof” (Rempex Pharmaceuticals, Inc., priority 2013, dated 2017).

Legend:
[1] = tested on: CMY-6 EC1010; type: cell-based; details: strain CMY-6 EC1010, tigemonam alone
[2] = tested on: SHV-5 ec308; type: cell-based; details: for TIG MPC4 SHV-5 ec308: minimum BLI concentration inhibiting growth with tigemonam at 4 μg/mL
[3] = tested on: CTX-M-15 KP1009; type: cell-based
[4] = tested on: CTX-M-14 KP1005; type: cell-based
[5] = tested on: TEM-10 ec302; type: cell-based
[6] = tested on: ECL1002; type: cell-based; details: for TIG MPC4 ECL1002: minimum BLI concentration inhibiting growth with tigemonam at 4 μg/mL
[7] = tested on: ECL1002; test: Aztreonam potentiation (MPC@4); type: cell-based; details: minimum BLI concentration inhibiting growth with 4 μg/mL aztreonam
[8] = molecular target: SHV-12 (Klebsiella pneumoniae, UniProt P0AD64, E235K/G234S/L31Q); test: Inhibition of nitrocefin cleavage by purified enzyme (Ki); type: biochemical; details: nitrocefin reporter substrate, 10 min preincubation; read-out: Ki (SHV-12, NCF)
SHV-12, sequence (P0AD64 22-286 L31Q/G234S/E235K): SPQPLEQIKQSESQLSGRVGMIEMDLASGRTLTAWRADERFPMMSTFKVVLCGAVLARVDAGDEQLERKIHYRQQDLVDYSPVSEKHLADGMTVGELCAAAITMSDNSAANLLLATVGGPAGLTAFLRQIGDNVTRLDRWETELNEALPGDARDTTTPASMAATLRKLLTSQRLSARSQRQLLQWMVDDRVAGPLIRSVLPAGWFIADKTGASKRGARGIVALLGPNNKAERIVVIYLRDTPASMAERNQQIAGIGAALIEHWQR
Method: Purified enzymes were mixed with various concentrations of inhibitors in reaction buffer and incubated for 10 min at room temperature. Nitrocefin was added and substrate cleavage profiles were recorded at 490 nm every 10 sec for 10 min.

[9] = tested on: CMY-6 EC1010; test: Aztreonam potentiation (MPC@4); type: cell-based; details: minimum BLI concentration inhibiting growth with 4 μg/mL aztreonam
[10] = tested on: KP1004 KPC-2; test: Biapenem potentiation (MPC@1); type: cell-based; details: minimum BLI concentration inhibiting growth with 1 μg/mL biapenem
Method: (§1) Biapenem was present in the test medium at 1 μg/mL. […] Table 3 summarizes the BLI potency of biapenem potentiation (MPC@1) for two strains overexpressing class A (KPC) and class D (OXA-48) carbapenemases. Biapenem MIC for each strain is also shown.

[11] = tested on: OXA-48 KP1086; test: Biapenem potentiation (MPC@1); type: cell-based; details: minimum BLI concentration inhibiting growth with 1 μg/mL biapenem
Method: as §1

[12] = tested on: SHV-5 ec308; test: Aztreonam potentiation (MPC@4); type: cell-based; details: minimum BLI concentration inhibiting growth with 4 μg/mL aztreonam
[13] = Intravenous pharmacokinetics; type: in vivo; details: rat, plasma; rats, IV infusion over 0.5 hours, dose 20 mg/kg; read-out: Free Cl (converted)
Method: Rats (n=3 per compound) were administered by a single infusion. IV doses were infused over 0.5 hours via an indwelling femoral vein cannula. Plasma (˜0.3 mL) samples were collected from each rat at designated time points up to 24 hours. Blood samples were centrifuged within 5 min of collection at 12000 g for 5 min to obtain plasma. The plasma samples were stored at −80° C. until analyzed. Data were analyzed using WinNonlin.

[14] = tested on: KPC-2 KP1004; test: Aztreonam potentiation (MPC@4); type: cell-based; details: minimum BLI concentration inhibiting growth with 4 μg/mL aztreonam
[15] = tested on: CTX-M-15 KP1009; test: Aztreonam potentiation (MPC@4); type: cell-based; details: minimum BLI concentration inhibiting growth with 4 μg/mL aztreonam
[16] = Salt/complex formation to maintain the monomeric form (solution pH, monomer by HPLC); type: physicochemical
Method: The effect of additives that would form a salt or complex with the boronic acid derivatives was evaluated in order to identify those that would strongly favor the monomeric form at an acceptable pH for IV infusion (pH 4-8). […] The pH of the resulting homogeneous solution was measured with a pH meter and the purity was monitored by HPLC. Several bases and complexing agents were screened to identify those that would afford the highest monomer content as salt/complex with a desired pH. […] Oligomerization was more pronounced at higher concentrations with some bases and complexing agents. Among all the bases screened, the meglumine complex gave the highest percentage of monomeric form at the desired pH.

[17] = Compound 13 2 mg/mL in water, Pyridine-2-methanol, 2 equivalents
[18] = Compound 13 3 mg/mL in water, L-Lysine, 2 equivalents
[19] = Compound 13 10 mg/mL in water, 0.5N NaOH, 1 equivalent
[20] = Compound 13 10 mg/mL in water, 0.5N NaOH, 2 equivalents
[21] = Compound 13 10 mg/mL in water, Diethanolamine, 2 equivalents
[22] = Compound 13 10 mg/mL in water, Ethanolamine, 2 equivalents
[23] = Compound 13 10 mg/mL in water, Tris, 2 equivalents
[24] = Compound 13 50 mg/mL in water, Tris, 2 equivalents
[25] = Compound 13 50 mg/mL in water, Tris, 3 equivalents

CC1(C)[C@H](NC(=O)/C(=N\OCC(=O)O)c2csc(N)n2)C(=O)N1OS(=O)(=O)O [Tigemonam, reference compound]
Tigemonam MIC [1]: 16 mg/L
Tigemonam MIC ([2]; strain SHV-5 ec308, tigemonam alone): >64 mg/L
Tigemonam MIC ([3]; strain CTX-M-15 KP1009, tigemonam alone): >64 mg/L
Tigemonam MIC ([4]; strain CTX-M-14 KP1005, tigemonam alone): >64 mg/L
Tigemonam MIC ([5]; strain TEM-10 ec302, tigemonam alone): >64 mg/L
Tigemonam MIC ([6]; strain ECL1002, tigemonam alone): 32 mg/L

O=C(CSC(F)F)N[C@H]1Cc2cccc(C(=O)O)c2OB1O [Compound 3, (R)-3-(2-(difluoromethylthio)acetamido)-2-hydroxy-3,4-dihydro-2H-benzo[e][1,2]oxaborinine-8-carboxylic acid]
AZT MPC4 ECL1002 [7]: Y (MIC of 1 μg/mL to 10 μg/mL)
TIG MPC4 SHV-5 ec308 [2]: X (MIC of less than 1 μg/mL)
TIG MPC4 CTX-M-15 KP1009 [3]: X (key: X: MIC of less than 1 μg/mL; Y: MIC of 1 μg/mL to 10 μg/mL; Z: MIC of greater than 10 μg/mL)
Ki [8]: < 1 nM
AZT MPC4 CMY-6 EC1010 [9]: X (MIC of less than 1 μg/mL)
TIG MPC4 CTX-M-14 KP1005 [4]: X (key: X: MIC of less than 1 μg/mL; Y: MIC of 1 μg/mL to 10 μg/mL; Z: MIC of greater than 10 μg/mL)
BPM MPC1 KP1004 KPC-2 [10]: X (MIC of less than 1 μg/mL)
BPM MPC1 OXA-48 KP1086 [11]: Y (MIC of 1 μg/mL to 10 μg/mL)
AZT MPC4 SHV-5 ec308 [12]: X (MIC of less than 1 μg/mL)
clearance [13]: 2.45 L/h/kg
AZT MPC4 KPC-2 KP1004 [14]: Y (MIC of 1 μg/mL to 10 μg/mL)
TIG MPC4 TEM-10 ec302 [5]: Y (key: X: MIC of less than 1 μg/mL; Y: MIC of 1 μg/mL to 10 μg/mL; Z: MIC of greater than 10 μg/mL)
TIG MPC4 ECL1002 [6]: Y (MIC of 1 μg/mL to 10 μg/mL)

CSCC(=O)N[C@H]1Cc2cccc(C(=O)O)c2OB1O [Compound 13, (R)-2-hydroxy-3-(2-(methylthio)acetamido)-3,4-dihydro-2H-benzo[e][1,2]oxaborinine-8-carboxylic acid]
AZT MPC4 CTX-M-15 KP1009 [15]: X (MIC of less than 1 μg/mL)
AZT MPC4 ECL1002 [7]: X (MIC of less than 1 μg/mL)
TIG MPC4 SHV-5 ec308 [2]: X (MIC of less than 1 μg/mL)
TIG MPC4 CTX-M-15 KP1009 [3]: X (key: X: MIC of less than 1 μg/mL; Y: MIC of 1 μg/mL to 10 μg/mL; Z: MIC of greater than 10 μg/mL)
AZT MPC4 CMY-6 EC1010 [9]: X (MIC of less than 1 μg/mL)
TIG MPC4 CTX-M-14 KP1005 [4]: X (key: X: MIC of less than 1 μg/mL; Y: MIC of 1 μg/mL to 10 μg/mL; Z: MIC of greater than 10 μg/mL)
BPM MPC1 KP1004 KPC-2 [10]: X (MIC of less than 1 μg/mL)
BPM MPC1 OXA-48 KP1086 [11]: Y (MIC of 1 μg/mL to 10 μg/mL)
AZT MPC4 SHV-5 ec308 [12]: X (MIC of less than 1 μg/mL)
clearance [13]: 2.47 L/h/kg
AZT MPC4 KPC-2 KP1004 [14]: X (MIC of less than 1 μg/mL)
Monomer purity by HPLC (%) [16, 17]: 78%
pH [16, 17]: 5.5
Monomer purity by HPLC (%) [16, 18]: 97.3%
pH [16, 18]: 8.9
Monomer purity by HPLC (%) [16, 19]: 51.3%
pH [16, 19]: 7.3
Monomer purity by HPLC (%) [16, 20]: 60.9%
pH [16, 20]: 8.4
Monomer purity by HPLC (%) [16, 21]: 92.2%
pH [16, 21]: 11
Monomer purity by HPLC (%) [16, 22]: 97.1%
pH [16, 22]: 11
pH ([16]; Compound 13 10 mg/mL in water, Meglumine, 2 equivalents): 7.1
Monomer purity by HPLC (%) [16, 23]: 94.7%
pH [16, 23]: 7.8
pH ([16]; Compound 13 50 mg/mL in water, Meglumine, 2 equivalents): 7.2
Monomer purity by HPLC (%) [16, 24]: 89.7%
pH [16, 24]: 7.7
Monomer purity by HPLC (%) [16, 25]: 95.4%
pH [16, 25]: 8.5
TIG MPC4 TEM-10 ec302 [5]: Y (key: X: MIC of less than 1 μg/mL; Y: MIC of 1 μg/mL to 10 μg/mL; Z: MIC of greater than 10 μg/mL)
TIG MPC4 ECL1002 [6]: X (MIC of less than 1 μg/mL)
